Measurements published in the supplement of paper PMC10307832.

These cell lines were tested with CCn1c(-c2nonc2N)nc2c(C#CC(C)(C)O)ncc(OC[C@H]3CCCNC3)c21 + Cc1cc(Nc2cc(N3CCN(C)CC3)nc(Sc3ccc(NC(=O)C4CC4)cc3)n2)n[nH]1 [Tozasertib] (partner 0.1 µM) (assay: relative viability (nuclei count vs DMSO), 5 days (fraction); higher = more cells survive). Conditions: first compound 0.1 µM.
How it was run: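 Relative viability was taken as the ratio of nuclei in treated wells to nuclei in vehicle wells. Lung cancer cell lines in 1536-well plates received compounds by pin tool one day after seeding, either one drug alone or a fixed anchor-drug dose plus five library-drug doses (not always all listed) in √10 steps. Nuclei were counted on 4× images after 5 days of treatment, and values are medians of duplicate plates.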

| Cell Line | relative viability |
| --- | --- |
| NCI-H647 | 0.255 |
| CAL-12T | 0.303 |
| NCI-H1651 | 0.794 |
| EPLC-272H | 0.261 |
| NCI-H2228 | 0.229 |
| NCI-H1355 | 0.549 |
| NCI-H3122 | 0.396 |
| NCI-H1437 | 0.422 |
| NCI-H1755 | 0.572 |
| NCI-H2023 | 0.341 |
| HCC-15 | 0.338 |
| NCI-H1793 | 0.487 |
| PC-14 | 0.687 |
| EKVX | 0.416 |
| LC-2-ad | 0.474 |
| NCI-H1944 | 0.266 |
| NCI-H1975 | 0.757 |
| RERF-LC-KJ | 0.403 |
| ABC-1 | 0.176 |
| NCI-H358 | 0.103 |
| NCI-H650 | 0.73 |
| PC-3 [JPC-3] | 0.833 |

Same assay, conditions: first compound 0.3162 µM

| Cell Line | relative viability |
| --- | --- |
| NCI-H441 | 0.57 |
| NCI-H661 | 0.364 |
| NCI-H1734 | 0.26 |
| NCI-H460 | 0.461 |
| NCI-H2347 | 0.613 |
| SK-LU-1 | 0.306 |
| NCI-H1395 | 0.651 |
| 201T | 0.933 |
| NCI-H1915 | 0.413 |
| HCC-827 | 0.449 |
| LXF-289 | 0.184 |
| NCI-H23 | 0.384 |
| NCI-H647 | 0.312 |
| CAL-12T | 0.309 |
| NCI-H1651 | 0.762 |
| EPLC-272H | 0.186 |
| NCI-H2228 | 0.246 |

| Cell Line | relative viability |
| --- | --- |
| NCI-H1355 | 0.611 |
| NCI-H3122 | 0.369 |
| NCI-H1437 | 0.39 |
| NCI-H1755 | 0.55 |
| NCI-H2023 | 0.305 |
| HCC-15 | 0.427 |
| NCI-H1793 | 0.343 |
| PC-14 | 0.533 |
| EKVX | 0.405 |
| LC-2-ad | 0.44 |
| NCI-H1944 | 0.236 |
| NCI-H1975 | 0.777 |
| RERF-LC-KJ | 0.477 |
| ABC-1 | 0.151 |
| NCI-H358 | 0.1 |
| NCI-H650 | 0.723 |
| PC-3 [JPC-3] | 0.827 |

Same assay, conditions: first compound 1 µM

| Cell Line | relative viability |
| --- | --- |
| NCI-H441 | 0.56 |
| NCI-H661 | 0.382 |
| NCI-H1734 | 0.268 |
| NCI-H460 | 0.532 |
| NCI-H2347 | 0.583 |
| SK-LU-1 | 0.344 |
| NCI-H1395 | 0.659 |
| 201T | 0.963 |
| NCI-H1915 | 0.464 |
| HCC-827 | 0.43 |
| LXF-289 | 0.197 |
| NCI-H23 | 0.432 |
| NCI-H647 | 0.396 |
| CAL-12T | 0.298 |
| NCI-H1651 | 0.805 |
| EPLC-272H | 0.274 |
